US4749782A, “Vasopressin compounds” (Smithkline Beckman Corporation, priority 1986, dated 1988)

The substances below were run against T1, V2 -vasopressin receptors (Rattus norvegicus, UniProt Q00788) (assay: in vivo diuretic activity in the hydropenic rat). Conditions: measure of V2 antagonism.
T1 construct: from tissue; host or cells: whole animal (hydropenic rat)
T1 sequence (Q00788 whole entry): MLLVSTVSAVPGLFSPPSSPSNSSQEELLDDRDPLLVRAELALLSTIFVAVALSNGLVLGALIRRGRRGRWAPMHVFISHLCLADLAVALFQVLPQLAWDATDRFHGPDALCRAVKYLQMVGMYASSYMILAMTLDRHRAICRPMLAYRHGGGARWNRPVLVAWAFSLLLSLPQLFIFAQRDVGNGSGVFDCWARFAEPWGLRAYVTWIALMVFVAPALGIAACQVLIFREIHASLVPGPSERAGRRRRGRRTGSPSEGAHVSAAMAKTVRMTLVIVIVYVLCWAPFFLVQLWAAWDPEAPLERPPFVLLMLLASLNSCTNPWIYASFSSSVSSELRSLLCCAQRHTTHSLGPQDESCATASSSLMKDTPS
Description: Antagonistic activity at the V2 -vasopressin receptors is determined in a protocol which determines in vivo diuretic activity in the hydropenic rat (ED300 μg/kg). This procedure is described in the literature: F. Stassen et al., 1st International Conference on Diuretics, Miami, FL., March (1984).
“[1-(β,β-diethyl-β-mercaptopropionic acid)-2-(O-ethyl-L-tyrosine)-4-valine-8-arginine] vasopressin [Compound C]” was tested, and the ED300 was 0.1205 mg/kg. “[1-(β,β-dimethyl-β-mercaptopropionic acid)-2-(O-ethyl-D-tyrosine)-4-valine-8-arginine]vasopressin [Compound D, reference compound]” gave an ED300 of 4.95 mg/kg. “[1-(β,β-diethyl β-mercaptopropionic acid)-2-(O-ethyl-D-tyrosine)-4-valine-8-arginine-9-desglycine]-vasopressin [Compound B]” was tested, and the ED300 was 0.0119 mg/kg.
